Molecules are shown by their SMILES.

This assay has as its system HBV. In words: Test of anti HBV activity in vitro (viral DNA by qPCR). In kind it is cell-based. The following applies: Hepatitis B virus; HepG2.2.15 cells, viral DNA in cell culture supernatant by qPCR; read-out: EC50 values of the compound of the invention on viral replication. The protocol: Test 1: Test Method of Calculating Anti HBV EC50
HBV Cell Line and Culture Conditions
HepG2.2.15 (SELLS, PNAS, 1987 and SELLS, JV, 1988) chromosomes have an integrated complete HBV genome, and stably express viral RNA and viral protein. HepG2.2.15 cells can secrete mature HBV particles, HBsAg and HBeAg, to medium. HepG2.2.15 cells were cultured in DMEM containing 10% fetal bovine serum, 100 U/mL penicillin, 100 U/mL streptomycin, 1% non essential amino acid, 1 mM sodium pyruvate and 300 μg/mL G418.
Viral particles DNA secreted from HepG2.2.15 cells can be quantified by qPCR, and the effect of the compound on viral replication can be detected.
Test of Anti HBV Activity In Vitro
8000 HepG 2.2.15 cells per well were seeded into a 96-well plate, the plate was cultured at 37° C. and 5% CO2 for 3 days till the cells grew to full wells. Old liquid medium can be removed and replaced with new medium (200 μL) on day 0.
Formulating the compound and treating the cells in the experiment of anti virus: the compound was dissolved in DMSO to a concentration of 30 mM, and then the compound solution was diluted with DMSO to a concentration of 800 μM, and then eight dilutions at 4 fold were performed, the highest concentration is 800 μM. The serial diluted compound was added to the above plate at 1 μL per well, the highest final concentration in the experiment is 4 μM (200 fold dilution). TDF (tenofovir dipiroxil fumarate, Selleck, Cat S1400) has a highest concentration of 4 μM as a positive control. 1 μL of DMSO was added in to the […] at a final concentration of 0.5%, TDF was added in to the […] at a final concentration of 1 μM.
Detection of Viral Genomic DNA by aPCR
Primer: HBV-For-202, […]; HBV-Rev-315, […]. Copies of virus can be calculated using a standard curve plotted by using plasmid containing HBV genome and using SYBR Premix Ex Taq II—Takara DRR081S kit and 1 μL cell culture supernatant as a template. EC50 values of the compound on viral replication were calculated by a four parametric nonlinear regression model using Graphpad Prism 5 software to manage concentration—viral copy number.
In general terms: In qPCR the cycle at which signal appears reflects the starting amount.
Regarding `COC(=O)C1=C(CN2CCN3C(=O)N(c4ccc(-c5ccc(C(=O)O)cc5F)cc4F)C[C@@H]3C2)NC(c2nccs2)=N[C@H]1c1ccc(F)cc1Cl` [Example 120], the EC50 worked out at 25.5 nM.
In the case of `COC(=O)C1=C(CN2CCN3C(=O)N(c4ccc(-c5nc(C6CCCCC6)c[nH]5)cc4)C[C@@H]3C2)NC(c2nccs2)=N[C@H]1c1ccc(F)cc1Cl` [Example 110, (R)-methyl 4-(2-chloro-4-fluorophenyl)-6-(((S)-2-(4-(5-cyclohexyl-1H-imidazol-2-yl)phenyl)-3-oxohexahydroimidazo[1,5-a]pyrazin-7(1H)-yl)methyl)-2-(thiazol-2-yl)-1,4-dihydropyrimidine-5-carboxylate], the half-maximal effective concentration (EC50) was found to be 30.5 nM.
Turning to `COC(=O)C1=C(CN2CCN3C(=O)N(c4ccc(Oc5ccc(C(=O)O)cc5)nc4)C[C@@H]3C2)NC(c2nccs2)=N[C@H]1c1ccc(F)cc1Cl` [Example 7, 4-((5-((S)-7-(((R)-6-(2-chloro-4-fluorophenyl)-5-(methoxycarbonyl)-2-(thiazol-2-yl)-3,6-dihydropyrimidin-4-yl)methyl)-3-oxohexahydroimidazo[1,5-a]pyrazin-2(3H)-yl)pyridin-2-yl)oxy)benzoic acid], the EC50 turned out to be 8.78 nM.
Consider `COC(=O)C1=C(CN2CCN3C(=O)N(CC#Cc4ccc(C(=O)O)c(OC)c4)C[C@@H]3C2)NC(c2nccs2)=N[C@H]1c1ccc(F)cc1Cl` [Example 52, 4-(3-((S)-7-(((R)-6-(2-chloro-4-fluorophenyl)-5-(methoxycarbonyl)-2-(thiazol-2-yl)-3,6-dihydropyrimidin-4-yl)methyl)-3-oxohexahydroimidazo[1,5-a]pyrazin-2(3H)-yl)prop-1-yn-1-yl)-2-methoxybenzoic acid], for which the EC50 came to 41.8 nM.
For `COC(=O)C1=C(CN2CCN3C(=O)N(c4cc(F)cc(N5CCO[C@H](CCC(=O)O)C5)c4)C[C@@H]3C2)NC(c2nccs2)=N[C@H]1c1ccc(F)cc1Cl` [Example 131, 3-((R)-4-(3-((S)-7-(((R)-6-(2-chloro-4-fluorophenyl)-5-(methoxycarbonyl)-2-(thiazol-2-yl)-3,6-dihydropyrimidin-4-yl)methyl)-3-oxohexahydroimidazo[1,5-a]pyrazin-2(3H)-yl)5-fluorophenyl)morpholin-2-yl)propanoic acid] the value was 8.6 nM; for `COC(=O)C1=C(CN2CCN3C(=O)N(c4ccc(Oc5cccc(C(=O)O)c5)cn4)C[C@@H]3C2)NC(c2nccs2)=N[C@H]1c1ccc(F)cc1Cl` [Example 16, 3-((6-((S)-7-(((R)-6-(2-chloro-4-fluorophenyl)-5-(methoxycarbonyl)-2-(thiazol-2-yl)-3,6-dihydropyrimidin-4-yl)methyl)-3-oxohexahydroimidazo[1,5-a]pyrazin-2(3H)-yl)pyridin-3-yl)oxy)benzoic acid], 12 nM; for `CCc1c[nH]c(-c2ccc(N3C[C@@H]4CN(CC5=C(C(=O)OC)[C@H](c6ccc(F)cc6Cl)N=C(c6nccs6)N5)CCN4C3=O)cc2)n1` [Example 109, (R)-methyl 4-(2-chloro-4-fluorophenyl)-6-(((S)-2-(4-(4-ethyl-1H-imidazol-2-yl)phenyl)-3-oxohexahydroimidazo[1,5-a]pyrazin-7(1H)-yl)methyl)-2-(thiazol-2-yl)-1,4-dihydropyrimidine-5-carboxylate], 12.4 nM.
For the compound `COC(=O)C1=C(CN2CCN3C(=O)N(c4ccc(Oc5ccc(C(=O)O)cn5)cc4)C[C@@H]3C2)NC(c2nccs2)=N[C@H]1c1ccc(F)cc1Cl` [Example 78, 6-(4-((S)-7-(((R)-6-(2-chloro-4-fluorophenyl)-5-(methoxycarbonyl)-2-(thiazol-2-yl)-3,6-dihydropyrimidin-4-yl)methyl)-3-oxohexahydroimidazo[1,5-a]pyrazin-2(3H)-yl)phenoxy)nicotinic acid], the EC50 was found to be 38.7 nM.
Take `COC(=O)C1=C(CN2CCN3C(=O)N(c4ccc(-c5ccc(C(=O)O)cc5F)nc4)C[C@@H]3C2)NC(c2nccs2)=N[C@H]1c1ccc(F)cc1Cl` [Example 124, 4-(5-((S)-7-(((R)-6-(2-chloro-4-fluorophenyl)-5-(methoxycarbonyl)-2-(thiazol-2-yl)-3,6-dihydropyrimidin-4-yl)methyl)-3-oxohexahydroimidazo[1,5-a]pyrazin-2(3H)-yl)pyridin-2-yl)-3-fluorobenzoic acid]: the EC50 stood at 47.4 nM.
As for `COC(=O)C1=C(CN2CCN3C(=O)N(Cc4ccc(-c5ccc(C(=O)O)cc5)cc4)C[C@@H]3C2)NC(c2nccs2)=N[C@H]1c1ccc(F)cc1Cl` [Example 10, 4′-(((S)-7-(((R)-6-(2-chloro-4-fluorophenyl)-5-(methoxycarbonyl)-2-(thiazol-2-yl)-3,6-dihydroprimidin-4-yl)methyl)-3-oxohexahydroimidazo[1,5-a]pyrazin-2(3H)-yl)methyl)-[1, 1′-diphenyl]-4-carboxylic acid], the EC50 was determined as 19.9 nM.
For `COC(=O)C1=C(CN2CCN3C(=O)N(CC#Cc4ccc(C(=O)O)cc4OC)C[C@@H]3C2)NC(c2nccs2)=N[C@H]1c1ccc(F)cc1Cl` [Example 53, 4-(3-((S)-7-(((R)-6-(2-chloro-4-fluorophenyl)-5-(methoxycarbonyl)-2-(thiazol-2-yl)-3,6-dihydropyrimidin-4-yl)methyl)-3-oxohexahydroimidazo[1,5-a]pyrazin-2(3H)-yl)prop-1-yn-1-yl)-3-methoxybenzoic acid], the EC50 is 34.1 nM.
`COC(=O)C1=C(CN2CCN3C(=O)N(c4ccc5[nH]c(C6CCCN6C)nc5c4)C[C@@H]3C2)NC(c2nccs2)=N[C@H]1c1ccc(F)cc1Cl` (stereo partly drawn) [Example 108, (4R)-methyl 4-(2-chloro-4-fluorophenyl)-6-(((8aS)-2-(2-(1-methylpyrrolidin-2-yl)-1H-benzo[d]imidazol-5-yl)-3-oxohexahydroimidazo[1,5-a]pyrazin-7(1H)-yl)methyl)-2-(thiazol-2-yl)-1,4-dihydropyrimidine-5-carboxylate]: the EC50 was 6.8 nM.
In the case of `COC(=O)C1=C(CN2CCN3C(=O)N(c4ccc(Oc5ccc(C(=O)O)cc5)cc4)C[C@@H]3C2)NC(c2nccs2)=N[C@H]1c1ccc(F)cc1Cl` [Example 6, 4-(4-((S)-7-(((R)-6-(2-chloro-4-fluorophenyl)-5-(methoxycarbonyl)-2-(thiazol-2-yl)-3,6-dihydropyrimidin-4-yl)methyl)-3-oxohexahydroimidazo[1,5-a]pyrazin-2(3H)-yl)phenoxy) benzoic acid], the EC50 is 14 nM.
Take `COC(=O)C1=C(CN2CCN3C(=O)N(CC#Cc4ccc(C(N)=O)cc4)C[C@@H]3C2)NC(c2nccs2)=N[C@H]1c1ccc(F)cc1Cl` [Example 39, (R)-methyl 6-(((S)-2-(3-(4-carbamoylphenyl)prop-2-yn-1-yl)-3-oxohexahydroimidazo[1,5-a]pyrazin-7(1H)-yl)methyl)-4-(2-chloro-4-fluorophenyl)-2-(thiazol-2-yl)-1,4-dihydropyrimidine-5-carboxylate]: the EC50 turned out to be 6.6 nM.
Take `COC(=O)C1=C(CN2CCN3C(=O)N(c4ccc(-c5ccc(C(=O)O)cc5)cc4)C[C@@H]3C2)NC(c2nccs2)=N[C@H]1c1ccc(F)cc1Cl` [Example 12]: the EC50 amounted to 13 nM.
Under `CONC(=O)c1ccc(C#CCN2C[C@@H]3CN(CC4=C(C(=O)OC)[C@H](c5ccc(F)cc5Cl)N=C(c5nccs5)N4)CCN3C2=O)cc1` [Example 40, (R)-methyl 4-(2-chloro-4-fluorophenyl)-6-(((S)-2-(3-(4-(methoxycarbamoyl)phenyl)prop-2-yn-1-yl)-3-oxohexahydroimidazo[1,5-a]pyrazin-7(1H)-yl)methyl)-2-(thiazol-2-yl)-1,4-dihydropyrimidine-5-carboxylate] stands 8.2 nM.

The EC50 is the concentration giving half of the maximal effect.
